Measurements reported in patent US20030130121A1, “Novel bacterial isolate and the preparation and use of its active metabolites” (priority 1999, published 2003).
Converted amounts (≈) assume the structure as drawn. “Also recorded” adds a separate entry of the source. Like-named read-outs stand apart in the source and are kept apart here.

Assays:
[1] = test system: three classes of fungi other than Oomycetes; conditions: Strobel et al. (1999); inhibition of mycelial growth; cited from earlier work
S. sclerotiorum mycelium = assay: Suppression of S. sclerotiorum mycelial growth, susceptibility test discs on PDA; assay type: cell-based, Sclerotinia sclerotiorum; conditions: for inhibition of mycelial growth: S. sclerotiorum, qualitative
Method: For testing effects of haterumalide A, halves of surface sterilized and bisected sclerotia were placed in the center PDA plates (9 cm in diameter) to initiate mycelial growth of S. sclerotiorum. The metabolite, at a concentration from 0.05 to 5 μg ml^−1 diluted in MeOH/H2O (1:1), was then spotted directly onto sterile antimicrobial susceptibility test discs (Oxoid Ltd) located at four equidistant places, giving a total of 0.2 to 20 μg ml^−1 compound per one Petri plate. The treatments were performed in triplicate. Zones of inhibition of mycelial growth were measured after 4 days and reduction of mycelial growth was calculated as a percentage of MeOH/H2O controls.

F. oxysporum conidia = assay: Suppression of spore germination - microtiter plate assay 1; assay type: cell-based; conditions: Fusarium oxysporum, read-out: Minimal Inhibitory Concentration (MIC) to totally inhibit spore germination
Method: (§1) To obtain the A. fumigatus conidiospores, the fungus was grown on ME slants for about 2 weeks at 28° C. The F. culmorum and F. oxysporum conidia, the H. annosum basidiospores, the M. canis macroconidia were produced by inoculating fungal plugs on Corn Meal Agar plates (CMA, Difco Ltd.), Hagem Agar plates (5 g glucose, 5 g ME, 0.5 g NH4NO3, 0.5 g KH2PO4, 0.5 g MgSO4×7H2O, 20 g Agar in 1000 ml deionized H2O) and Oat Meal Agar plates (60 g oat meal, 12.5 g Agar in 1000 ml deionized H2O), respectively, for a period of 5 to 10 days at 25° C. Ascospores of S. sclerotiorum were collected during their dispersal from apothecia by entrapping them on the surface of a water agar (12 g Bacto Agar (Difco Ltd)), 1000 ml H2O). Mature spores were then scraped off or washed out from the surface of the agar plates, with 0,5% Bacto Peptone (Difco Ltd) supplemented with 0.01% Tween 80. The P. ultimum sporangia were obtained by. growing the fungus on grass blades (Martin, 1992). The C. albicans stock culture of 1.0×10^6 cfu ml^−1 was prepared from a 24-hours old culture grown on Yeast Malt Agar plates (YM Agar, Difco Ltd) at 37° C. by suspending it in 0.5% Bacto Peptone and adjusting the optical density of this culture to an absorbance of 0.5 at 600 nm. The spore concentration was counted by using a Bürker chamber, and stock spore suspensions were stored at −70 ° C. for further use. The spore concentrations in respective stock suspensions, as well as the spore concentrations and media to culture fungi in a microtiter plate assay, are listed in Table 2 below.
(§2) To follow the activity during purification, HPLC-fractions to be tested were directly collected to 96-well microtiter plates by using a fraction collector (FC 204, Gilson), and mainly the activity to inhibit the germination of F. culmorum conidia and S. sclerotiorum ascospores was tested. […] The solvents were always evaporated, and one hundred μl of spore suspension, suspended in the appropriate media as listed in Table 2, were then distributed into each well. Depending on the fungus tested, the spore germination was monitored after 24 to 96 hours of incubation at 25° C. in darkness except for A. fumigatus and C. albicans which were incubated at 28 ° C. and 37 ° C. Controls were spores suspended in respective culturing media and culturing media only. All tests were done in triplicate and repeated at least twice.
(§3) The activity of haterumalide A, B and E, and of pyrrolnitrin to inhibit the spore germination of A. fumigatus, F. culmorum, F. oxysporum, H. annosum, M. canis, P. ultimum and S. sclerotiorum as well as the inhibition of the C. albicans growth was tested by using the microtiter plate assay 1 described in Example 7. The effect on apothecial formation of S. sclerotiorum sclerotia was assayed by using microtiter plate assay 2 described in Example 7.

H. annosum basidiospores = assay: as above; assay type: cell-based; conditions: Heterobasidion annosum, read-out: Minimal Inhibitory Concentration (MIC) to totally inhibit spore germination
Method: as §1, §2, §3

P. ultimum sporangia = assay: as above; assay type: cell-based; conditions: Globisporangium ultimum, read-out: Minimal Inhibitory Concentration (MIC) to totally inhibit spore germination
Method: as §1, §2, §3

[2] = test system: A. fumigatus conidiospores; assay: as above; assay type: cell-based; conditions: Aspergillus fumigatus, read-out: Minimal Inhibitory Concentration (MIC) to totally inhibit spore germination
Method: as §1, §2, §3

F. culmorum conidia = assay: as above; assay type: cell-based; conditions: Fusarium culmorum, read-out: Minimal Inhibitory Concentration (MIC) to totally inhibit spore germination
Method: as §1, §2, §3

[3] = test system: S. sclerotiorum sclerotia; assay: Viability of recovered sclerotia; assay type: cell-based, Sclerotinia sclerotiorum
Method: The sclerotia were placed in 100 ml of deionized water for 10 minutes and subsequently. washed with running deionized water for 10 minutes. They were then transferred onto moistened filter paper in sealed Petri dishes and placed under light conditions suitable for induction of apothecial formation. […] These sclerotia were surface disinfected in 70% ethanol for 2 minutes, rinsed in sterile deionized water, bisected, transferred to PDA in Petri dishes, and observed for mycelial growth after 5 days.
All the preparations were prepared in such a way that their relative concentrations corresponded to those of the bacterial culture, i.e. 1.5×10^9 cfu ml^−1 (non-diluted), 0.75×10^9 cfu ml^−1 (diluted 1:1) and 0.375×10^9 cfu ml^−1 (diluted 1:3), and their apothecial suppressive activity was compared to the effect of such bacterial cultures tested simultaneously. Three Petri plates per treatment were used with sclerotia treated with deionized water, 50, 25 and 12, 5% strength TSB and 1, 0.5 and 0.25% methanol (MeOH) in deionized water, as controls. Inclusion of methanol controls reflected residual concentrations of methanol in the ethyl acetate extratct and aqueous phase. The suppression of apothecial formation after the treatment with various culture preparations was transformed to values of apothecia formed per one sclerotium as a percentage of water control. Sclerotia with suppressed apothecial formation were retrieved and their viability was tested as described above (Example 8).

M. canis macroconidia = assay: Suppression of spore germination - microtiter plate assay 1; assay type: cell-based, Microsporum canis var. canis; conditions: Microsporum canis, read-out: Minimal Inhibitory Concentration (MIC) to totally inhibit spore germination
Method: as §1, §2
as §3, with “The effect on apothecial formation of S. sclerotiorum sclerotia was assayed by using microtiter plate assay 2 described in Example 7.” left out

[4] = test system: S. sclerotiorum ascospores; assay: as above; assay type: cell-based, Sclerotinia sclerotiorum; conditions: for inhibition of ascospore germination: S. sclerotiorum, qualitative; for MIC: Sclerotinia sclerotiorum, read-out: Minimal Inhibitory Concentration (MIC) to totally inhibit spore germination
Method: as §1, §2, §3

[5] = test system: S. sclerotiorum sclerotia; assay: Suppression of apothecial formation - microtiter plate assay 2; assay type: cell-based, Sclerotinia sclerotiorum; conditions: for inhibition of apothecial formation of sclerotia: S. sclerotiorum, qualitative; for MIC: Sclerotinia sclerotiorum
Method: Twenty four-well microtiter plates were used to test the effect of the purified metabolites on apothecial formation in a concentration range between 0.01 μg ml^−1 and 100 μg ml^−1. To obtain respective concentrations of tested metabolites, the appropriate volume out of the respective metabolite stock solutions of 100 μg ml^−1, 10 μg ml^−1 and 1 μg ml^−1, dissolved in acetonitrile, was distributed into the wells and the solvent was then evaporated. Thereupon, the metabolites were dissolved in sterile H2O and one, or in some tests two, preconditioned sclerotia were placed into each well. Tests were done in triplicate and controls were sclerotia placed in sterile water only.
as §3

Lemna minor = assay: Differentiation and growth of Lemna minor, 24-well microtiter plates; assay type: in vivo; conditions: for Number of Lemna minor fronts (leaves) per one microtiter plate well, End of test: 10 fronts at beginning, control 36
Method: Twenty four-well microtiter plates were used to test the effect of the purified haterumalide B on differentiation and growth of Lemna minor in a concentration range between 1 μg ml^−1 and 60 μg ml^−1. To obtain respective concentrations of the tested metabolite, the appropriate volume out of the respective metabolite stock solutions of 100 μg ml^−1 and 10 μg ml^−1, dissolved in acetonitrile, was distributed into the wells, and the solvent was then evaporated. Thereupon, the metabolite was dissolved in a sterile Lemna medium and three Lemna minor plants with 10 fronts were placed into each well. Tests were done in duplicate and controls were Lemna minor plants placed in only Lemna medium.

[6] = test system: green algae (Scenedesmus quadricauda); assay: Growth of green algae in Z8 medium; assay type: cell-based; conditions: concentrations similar to those used for the Lemna minor test; preliminary
Method: Additionally, the similar method was used to preliminary test the effect of haterumalide B on the growth of green algae (Scenedesmus quadricauda). Evaporated haterumalide B was dissolved in a sterile Z8 medium with the suspension of algae. Tests were performed in duplicate with suspensions of Scenedesmus quadricauda placed in only sterile Z8 medium as controls.

Stellaria media = assay: Foliar spraying of Stellaria media with A 153 culture preparations and haterumalide B; assay type: in vivo; conditions: Stellaria media 6-8 leaf stage; 4 ml/4 plants/pot; no concentration factor printed
[7] = read-out: Minimal Inhibitory Concentration (MIC) to totally inhibit apothecial formation of sclerotia, S. sclerotiorum sclerotia

Row | Compound | inhibition of mycelial growth (S. sclerotiorum mycelium) | MIC (F. oxysporum conidia) [µg/mL] | MIC (H. annosum basidiospores) [µg/mL] | MIC (P. ultimum sporangia) [µg/mL] | MIC [2] [µg/mL] | MIC (F. culmorum conidia) [µg/mL] | MIC (M. canis macroconidia) [µg/mL] | inhibition of ascospore germination [4] | MIC [4] [µg/mL] | inhibition of apothecial formation of sclerotia [5] | MIC [5, 7] [µg/mL] | further results
1 | CC(=O)O[C@H]1CC(=O)OC2CC(CC/C(Cl)=C/C/C=C\1C)O[C@H]2[C@H](O)/C=C(\C)CC(=O)O (some centres unmarked) [Haterumalide A] | ability to inhibit | 0.8 (≈ 1.7 µM) | 35 (≈ 74.3 µM) | 0.4 (≈ 0.849 µM) | 5 (≈ 10.6 µM) | 2 (≈ 4.25 µM) | 15 (≈ 31.9 µM) | ability to inhibit | 0.8 (≈ 1.7 µM) | ability to inhibit |  | activity against three classes of fungi other than Oomycetes [1]: little or no activity; inhibition of mycelial growth of S. sclerotiorum (S. sclerotiorum mycelium; 0.05 to 0.1 μg ml^−1 per disc, 4 days): did not inhibit; mycelial growth of retrieved sclerotia on PDA plates ([3]; sclerotia treated with 10 μg ml^−1): no mycelial growth; apothecial formation of retrieved sclerotia on moistened filter paper ([3]; sclerotia treated with 0.5 and 1 μg ml^−1): produced apothecia; mycelial growth of retrieved sclerotia on PDA plates ([3]; sclerotia treated with 3 and 5 μg ml^−1): produced mycelium; carpogenic germination of retrieved sclerotia ([3]; sclerotia treated with 3 to 10 μg ml^−1): total inhibition
2 | C=C(COC(=O)C/C(C)=C/[C@@H](O)[C@@H]1OC2CC/C(Cl)=C/C/C=C(/C)[C@@H](OC(C)=O)CC(=O)OC1C2)C(C)=O (some centres unmarked) [Haterumalide B] | ability to inhibit | 0.8 (≈ 1.45 µM) | 20 (≈ 36.2 µM) | 1 (≈ 1.81 µM) | 13 (≈ 23.5 µM) | 1 (≈ 1.81 µM) | 40 (≈ 72.3 µM) | ability to inhibit | 3 (≈ 5.42 µM) | ability to inhibit | 0.5 (≈ 0.904 µM) | Number of Lemna minor fronts (leaves) per one microtiter plate well, End of test (Lemna minor; 1 μg ml-1): 10; Number of Lemna minor fronts (leaves) per one microtiter plate well, End of test (Lemna minor; 5 μg ml-1): 10; Number of Lemna minor fronts (leaves) per one microtiter plate well, End of test (Lemna minor; 10 μg ml-1): 10; Number of Lemna minor fronts (leaves) per one microtiter plate well, End of test (Lemna minor; 30 μg ml-1): 10; Number of Lemna minor fronts (leaves) per one microtiter plate well, End of test (Lemna minor; 60 μg ml-1): 10; Visible effects on Lemna fronts (Lemna minor; at all tested concentrations (1 to 60 μg ml-1)): fronts impaired and totally; also recorded: chlorotic; differentiation and growth of Lemna minor (Lemna minor; at all tested concentrations (1 to 60 μg ml^−1)): totally inhibited; growth of green algae [6]: inhibits the growth; Plants Surviving (Stellaria media): 0.0; Shot Fresh Weight (Stellaria media): 0.1 g
3 | C/C1=C/C/C=C(\Cl)CCC2CC(OC(=O)C[C@@H]1O)[C@H]([C@H](O)/C=C(\C)CC(=O)O)O2 (some centres unmarked) [Haterumalide E] | ability to inhibit | 25 (≈ 58.3 µM) | < 50 | 8 (≈ 18.7 µM) | 15 (≈ 35 µM) | 5 (≈ 11.7 µM) | < 75 | ability to inhibit | 3 (≈ 6.99 µM) | ability to inhibit | 0.5 (≈ 1.17 µM) | 
4 | CC(=O)O[C@H]1CC(=O)OC2CC(CC/C(Cl)=C/C/C=C\1C)O[C@H]2[C@H]1C=C(C)CC(=O)O1 (some centres unmarked) [Haterumalide X] | ability to inhibit |  |  |  |  |  |  | ability to inhibit |  | ability to inhibit |  | 
5 | O=[N+]([O-])c1c(Cl)cccc1-c1c[nH]cc1Cl [Pyrrolnitrin, pyrrolnitrin, reference compound] |  |  |  |  |  | 0.06 (≈ 0.233 µM) |  |  |  |  |  | MIC (F. oxysporum conidia; F. oxysporum): 20 µg/mL (≈ 77.8 µM); MIC (H. annosum basidiospores; H. annosum): 50 µg/mL (≈ 194 µM); MIC (P. ultimum sporangia; P. ultimum): < 50 µg/mL; MIC ([2]; A. fumigatus): 3 µg/mL (≈ 11.7 µM); MIC (M. canis macroconidia; M. canis): 1 µg/mL (≈ 3.89 µM); MIC ([4]; S. sclerotiorum ascospores): 10 µg/mL (≈ 38.9 µM); MIC ([5]; S. sclerotiorum sclerotia, read-out: Minimal Inhibitory Concentration (MIC) to totally inhibit apothecial formation of sclerotia): < 100 µg/mL
